Measured values from patent US20250092039A1, “GLUTARIMIDE-CONTAINING PAN-KRAS-MUTANT DEGRADER COMPOUNDS AND USES THEREOF” (Tiger Biotherapeutics Inc., priority 2022, published 2025).

Tests used:
[1] = target: KRAS-G12V/RAF1 (Homo sapiens (Human), UniProt P01116, G12V); test: KRAS/RAF1 binding inhibition assay (AlphaScreen)
Method: Binding affinity against GTP-bound KRAS of the compounds disclosed herein was measured by monitoring the interaction of guanosine 5′-[β,γ-imido]triphosphate-bound (GppNHp-bound) KRAS with the RBD domain of RAF1 in the presence of the test compound. […] The test compounds in 2% DMSO (final concentration) at various concentrations were then added to the reaction mixture and incubated for 60 minutes at 4° C.
Raw ALphaScreen data were converted to a percentage of inhibition (relative to DMSO) using the following equations: • a) For a given test compound concentration X: […]
The IC50 values were determined by nonlinear regression of plots of [inhibitor] vs. percentage of inhibition with variable slope, analyzed using GraphPad Prism (Version 9).

[2] = target: KRAS G12V (Homo sapiens (Human), UniProt P01116, G12V); test: KRAS G12V degradation in SW620 cells (Western blot, DC50); format: cell-based; settings: 24 hours
Chain of KRAS G12V (P01116-2 other isoform, or with tags, fused parts or gaps G12V): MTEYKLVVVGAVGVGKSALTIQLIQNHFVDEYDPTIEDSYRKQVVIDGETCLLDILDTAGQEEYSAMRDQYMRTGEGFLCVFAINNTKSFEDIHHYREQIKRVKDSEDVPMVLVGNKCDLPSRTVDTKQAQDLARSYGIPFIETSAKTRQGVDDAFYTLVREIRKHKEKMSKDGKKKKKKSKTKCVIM
Method: SW620 (KRAS G12V homozygous), AsPC1 (KRAS G12D homozygous), MIA PaCa2 (KRAS G12C homozygous), A549 (KRAS G12S homozygous) and MCF7 (KRAS WT) cells were obtained from American Type Culture Collection (ATCC). […] The following day, the test compound was administered to the cells by using 1000× compound stock solution prepared in DMSO at various concentrations. After administration of the compound, the cells were then incubated at 37° C. for 24 hours. Upon completion, the cells were washed with PBS and protein was collected in Laemmli sample buffer (1×; VWR International). Proteins in cell lysate were separated by SDS-PAGE and transferred to Odyssey nitrocellulose membranes (Licor) with iblot® dry blotting transfer system (ThermoFisher). Nonspecific binding was blocked by incubating membranes with Intercept Blocking Buffer (Licor) for 1 hour at room temperature with gentle shaking. […] After washing 3 times with TBS-T, the membranes were incubated with IRDye® 800CW goat anti-rabbit IgG (1:20,000, Licor) and IRDye® 680RD goat anti-mouse IgG (1:20,000, Licor) for 1 hour. After TBS-T washes, membranes were rinsed in TBS and Western blot images were acquired by Odyssey CLx (LI-COR Biosciences).
The signal intensity of target proteins was calculated using ImageStudio software. KRAS fluorescent intensity (FLU) from DMSO (vehicle) treatment was set as 100%. Relative KRAS expression level was determined by the following formula: […]
The percentage of KRAS expression was calculated using Microsoft Excel. The half-maximal degradation concentration (DCso) values were generated by GraphPad Prism (Version 9) using the dose-response equation of variable slope (four parameters).

Chain of KRAS-G12V/RAF1 (P01116-2 other isoform, or with tags, fused parts or gaps G12V): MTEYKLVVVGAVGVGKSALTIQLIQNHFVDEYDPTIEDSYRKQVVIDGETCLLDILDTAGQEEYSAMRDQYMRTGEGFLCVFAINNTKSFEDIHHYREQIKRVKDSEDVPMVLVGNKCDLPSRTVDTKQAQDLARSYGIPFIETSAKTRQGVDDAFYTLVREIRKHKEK

Row | Structure (SMILES) | IC50 [1] [nM] | DC50 [2] [nM]
1 | CCc1cccc2cc(O)cc(-c3ncc4c(N5CCCn6nc(C(=O)N(C)C)c(Cl)c6C5)nc(OCC5(CN6CCC7(CC6)CC(CN6CCN(c8ccc9c(c8)CN([C@H]8CCC(=O)NC8=O)C9=O)CC6)C7)CC5)nc4c3F)c12 [Compound 102, (S)-3-chloro-5-(2-((1-((2-((4-(2-(2,6-dioxopiperidin-3-yl)-1-oxoisoindolin-5-yl)piperazin-1-yl)methyl)-7-azaspiro[3.5]nonan-7-yl)methyl)cyclopropyl)methoxy)-7-(8-ethyl-3-hydroxynaphthalen-1-yl)-8-fluoropyrido[4,3-d]pyrimidin-4-yl)-N,N-dimethyl-5,6,7,8-tetrahydro-4H-pyrazolo[1,5-a][1,4]diazepine-2-carboxamide] | > 200 | < 1
2 | CCc1c(F)ccc2cc(O)cc(-c3ncc4c(N5CCCOC6CC65)nc(OCC5(CN6CCC(CN7CCN(c8ccc9c(c8)CN([C@H]8CCC(=O)NC8=O)C9=O)CC7)CC6)CC5)nc4c3F)c12 (stereo partly drawn) [Compound 160, (3S)-3-(5-(4-((1-((1-(((4-(2-oxa-6-azabicyclo[5.1.0]octan-6-yl)-7-(8-ethyl-7-fluoro-3-hydroxynaphthalen-1-yl)-8-fluoropyrido[4,3-d]pyrimidin-2-yl)oxy)methyl)cyclopropyl)methyl)piperidin-4-yl)methyl)piperazin-1-yl)-1-oxoisoindolin-2-yl)piperidine-2,6-dione] | 20 to 200 | > 100
3 | CCc1cccc2cc(O)cc(-c3ncc4c(N5CCOC[C@](C)(O)C5)nc(OCC5(CN6CCC7(CC6)CC(CN6CCN(c8ccc9c(c8)CN([C@H]8CCC(=O)NC8=O)C9=O)CC6)C7)CC5)nc4c3F)c12 [Compound 107, (S)-3-(5-(4-((7-((1-(((7-(8-ethyl-3-hydroxynaphthalen-1-yl)-8-fluoro-4-((R)-6-hydroxy-6-methyl-1,4-oxazepan-4-yl)pyrido[4,3-d]pyrimidin-2-yl)oxy)methyl)cyclopropyl)methyl)-7-azaspiro[3.5]nonan-2-yl)methyl)piperazin-1-yl)-1-oxoisoindolin-2-yl)piperidine-2.6-dione] | > 200 | > 100
4 | CCc1c(F)ccc2cc(O)cc(-c3ncc4c(N5CCC[C@]6(C5)C[C@@H](O)C6)nc(OCC5(CN6CCC7(CC6)CC(CN6CCN(c8ccc9c(c8)CN([C@H]8CCC(=O)NC8=O)C9=O)CC6)C7)CC5)nc4c3F)c12 [Compound 100, (S)-3-(5-(4-((7-((1-(((7-(8-ethyl-7-fluoro-3-hydroxynaphthalen-1-yl)-8-fluoro-4-((2r,4s)-2-hydroxy-6-azaspiro[3.5]nonan-6-yl)pyrido[4,3-d]pyrimidin-2-yl)oxy)methyl)cyclopropyl)methyl)-7-azaspiro[3.5]nonan-2-yl)methyl)piperazin-1-yl)-1-oxoisoindolin-2-yl)piperidine-2,6-dione] | 20 to 200 | > 100
5 | C[C@@]1(O)CCCN(c2nc(OCC3(CN4CCC(CN5CCN(c6ccc7c(c6)CN([C@H]6CCC(=O)NC6=O)C7=O)CC5)CC4)CC3)nc3c(F)c(-c4cc(O)cc5ccc(F)c(F)c45)ncc23)C1 [Compound 111, (S)-3-(5-(4-((1-((1-(((7-(7,8-difluoro-3-hydroxynaphthalen-1-yl)-8-fluoro-4-((R)-3-hydroxy-3-methylpiperidin-1-yl)pyrido[4,3-d]pyrimidin-2-yl)oxy)methyl)cyclopropyl)methyl)piperidin-4-yl)methyl)piperazin-1-yl)-1-oxoisoindolin-2-yl)piperidine-2,6-dione] | 20 to 200 | 1 to 10
6 | CCc1c(F)ccc2cc(O)cc(-c3ncc4c(N5CCC[C@]6(C5)C[C@H](O)C6)nc(OCC5(CN6CCC7(CC6)CC(CN6CCN(c8ccc9c(c8)CN([C@H]8CCC(=O)NC8=O)C9=O)CC6)C7)CC5)nc4c3F)c12 [Compound 99, (S)-3-(5-(4-((7-((1-(((7-(8-ethyl-7-fluoro-3-hydroxynaphthalen-1-yl)-8-fluoro-4-((2s,4r)-2-hydroxy-6-azaspiro[3.5]nonan-6-yl)pyrido[4,3-d]pyrimidin-2-yl)oxy)methyl)cyclopropyl)methyl)-7-azaspiro[3.5]nonan-2-yl)methyl)piperazin-1-yl)-1-oxoisoindolin-2-yl)piperidine-2,6-dione] | 20 to 200 | > 100
7 | CCc1cccc2cc(O)cc(-c3ncc4c(N5C[C@@H]6C[C@H](C5)[C@H](O)C6)nc(OCC5(CN6CCC7(CC6)CC(CN6CCN(c8ccc9c(c8)CN([C@H]8CCC(=O)NC8=O)C9=O)CC6)C7)CC5)nc4c3F)c12 [Compound 101, (S)-3-(5-(4-((7-((1-(((7-(8-ethyl-3-hydroxynaphthalen-1-yl)-8-fluoro-4-((1R,5R,6R)-6-hydroxy-3-azabicyclo[3.2.1]octan-3-yl)pyrido[4,3-d]pyrimidin-2-yl)oxy)methyl)cyclopropyl)methyl)-7-azaspiro[3.5]nonan-2-yl)methyl)piperazin-1-yl)-1-oxoisoindolin-2-yl)piperidine-2,6-dione] | > 200 | < 1
8 | CCc1c(F)ccc2cc(O)cc(-c3ncc4c(N5CCCC6(CC(O)C6)C5)nc(OCC5(CN6CCC(CN7CCN(c8ccc9c(c8)CN([C@H]8CCC(=O)NC8=O)C9=O)CC7)CC6)CC5)nc4c3F)c12 (stereo partly drawn) [Compound 98, (S)-3-(5-(4-((1-((1-(((7-(8-ethyl-7-fluoro-3-hydroxynaphthalen-1-yl)-8-fluoro-4-(2-hydroxy-6-azaspiro[3.5]nonan-6-yl)pyrido[4,3-d]pyrimidin-2-yl)oxy)methyl)cyclopropyl)methyl)piperidin-4-yl)methyl)piperazin-1-yl)-1-oxoisoindolin-2-yl)piperidine-2,6-dione] | > 200 | 1 to 10
9 | CCc1c(F)ccc2cc(O)cc(-c3ncc4c(N5CCC[C@@](C)(O)C5)nc(OCC5(CN6CCC7(CC6)CC(F)(C6CCN(c8ccc9c(c8)CN(C8CCC(=O)NC8=O)C9=O)CC6)C7)CC5)nc4c3F)c12 (stereo partly drawn) [Compound 185, 3-(5-(4-(7-((1-(((7-(8-ethyl-7-fluoro-3-hydroxynaphthalen-1-yl)-8-fluoro-4-((R)-3-hydroxy-3-methylpiperidin-1-yl)pyrido[4,3-d]pyrimidin-2-yl)oxy)methyl)cyclopropyl)methyl)-2-fluoro-7-azaspiro[3.5]nonan-2-yl)piperidin-1-yl)-1-oxoisoindolin-2-yl)piperidine-2,6-dione] | 20 to 200 | > 100
10 | CCc1c(F)ccc2cc(O)cc(-c3ncc4c(N5C[C@@H]6C[C@H](C5)[C@H](O)C6)nc(OCC5(CN6CCC(CN7CCN(c8ccc9c(c8)CN([C@H]8CCC(=O)NC8=O)C9=O)CC7)CC6)CC5)nc4c3F)c12 (stereo in doubt) [Compound 96, (S)-3-(5-(4-((1-((1-(((7-(8-ethyl-7-fluoro-3-hydroxynaphthalen-1-yl)-8-fluoro-4-((1R,SR,6R)-6-hydroxy-3-azabicyclo[3.2.1]octan-3-yl)pyrido[4,3-d]pyrimidin-2-yl)oxy)methyl)cyclopropyl)methyl)piperidin-4-yl)methyl)piperazin-1-yl)-1-oxoisoindolin-2-yl)piperidine-2,6-dione] | > 200 | < 1
11 | C[C@@]1(O)CCCN(c2nc(OCC3(CN4CCC5(CC4)CC(CN4CCN(c6ccc7c(c6)CN([C@H]6CCC(=O)NC6=O)C7=O)CC4)C5)CC3)nc3c(F)c(-c4cc(O)cc5ccc(F)c(F)c45)ncc23)C1 [Compound 103, (S)-3-(5-(4-((7-((1-(((7-(7,8-difluoro-3-hydroxynaphthalen-1-yl)-8-fluoro-4-((R)-3-hydroxy-3-methylpiperidin-1-yl)pyrido[4,3-d]pyrimidin-2-yl)oxy)methyl)cyclopropyl)methyl)-7-azaspiro[3.5]nonan-2-yl)methyl)piperazin-1-yl)-1-oxoisoindolin-2-yl)piperidine-2,6-dione] | 20 to 200 | < 1
12 | CCc1c(F)ccc2cc(O)cc(-c3ncc4c(N5CCCn6nc(C(=O)N(C)C)c(Cl)c6C5)nc(OCC5(CN6CCC7(CC6)CC(CN6CCN(c8ccc9c(c8)CN([C@H]8CCC(=O)NC8=O)C9=O)CC6)C7)CC5)nc4c3F)c12 [Compound 94, (S)-3-chloro-5-(2-((1-((2-((4-(2-(2,6-dioxopiperidin-3-yl)-1-oxoisoindolin-5-yl)piperazin-1-yl)methyl)-7-azaspiro[3.5]nonan-7-yl)methyl)cyclopropyl)methoxy)-7-(8-ethyl-7-fluoro-3-hydroxynaphthalen-1-yl)-8-fluoropyrido[4,3-d]pyrimidin-4-yl)-N,N-dimethyl-5,6,7,8-tetrahydro-4H-pyrazolo[1,5-a][1,4]diazepine-2-carboxamide] | > 200 | 1 to 10
